Data as given in patent US20220187282A1, “CARDIOMYOCYTE PROLIFERATION” (The Council of the Queensland Institute of Medical Research, priority 2019, published 2022).
Where two headings read alike, the source gives them in different places.

Tests used:
Format in all cases: biochemical
kinases [1] = target: kinases (Homo sapiens, UniProt Q8NEB9); details: PIK3C3 (hVPS34) *Mn* Adapta SP; Test Conc(μM):ATP Conc(μM) 1:10
kinases [2] = target: kinases (Homo sapiens, UniProt P50613); details: CDK7/cyclin H/MNAT1 Adapta SP; Test Conc(μM):ATP Conc(μM) 1:150
kinases [3] = target: kinases (Homo sapiens, UniProt P23443); details: RPS6KB1 (p70S6K) Z-Lyte SP; Test Conc(μM):ATP Conc(μM) 1:10
kinases [4] = target: kinases (Homo sapiens, UniProt Q86UX6); details: STK32C (YANK3) FRET-Lantha SP; Test Conc(μM) 1
kinases [5] = target: kinases (Homo sapiens, UniProt Q6PHR2); details: ULK3 FRET-Lantha SP; Test Conc(μM) 1
kinases [6] = target: kinases (Homo sapiens, UniProt Q9NYY3); details: PLK2 FRET-Z-Lyte SP; Test Conc(μM):ATP Conc(μM) 1:25
kinases [7] = target: kinases (Homo sapiens, UniProt P05129); details: PRKCG (PKC gamma) Z-Lyte SP; Test Conc(μM):ATP Conc(μM) 1:25
kinases [8] = target: kinases (Homo sapiens, UniProt P49674); details: CSNK1E (CK1 epsilon) Z-Lyte SP; Test Conc(μM):ATP Conc(μM) 1:5
kinases [9] = target: kinases (Homo sapiens, UniProt O43781); details: DYRK3 FRET-Z-Lyte SP; ATP Conc(μM):Test Conc(μM) 1:5
kinases [10] = target: kinases (Homo sapiens, UniProt Q92918); details: MAP4K1 (HPK1) FRET-Lantha SP; Test Conc(μM) 1
kinases [11] = target: kinases (Homo sapiens, UniProt O75747); details: PIK3C2G FRET-Adapta SP; Test Conc(μM):ATP Conc(μM) 1:10
kinases [12] = target: T1, kinases (Homo sapiens, UniProt O15530)
T1 sequence (O15530 1-556): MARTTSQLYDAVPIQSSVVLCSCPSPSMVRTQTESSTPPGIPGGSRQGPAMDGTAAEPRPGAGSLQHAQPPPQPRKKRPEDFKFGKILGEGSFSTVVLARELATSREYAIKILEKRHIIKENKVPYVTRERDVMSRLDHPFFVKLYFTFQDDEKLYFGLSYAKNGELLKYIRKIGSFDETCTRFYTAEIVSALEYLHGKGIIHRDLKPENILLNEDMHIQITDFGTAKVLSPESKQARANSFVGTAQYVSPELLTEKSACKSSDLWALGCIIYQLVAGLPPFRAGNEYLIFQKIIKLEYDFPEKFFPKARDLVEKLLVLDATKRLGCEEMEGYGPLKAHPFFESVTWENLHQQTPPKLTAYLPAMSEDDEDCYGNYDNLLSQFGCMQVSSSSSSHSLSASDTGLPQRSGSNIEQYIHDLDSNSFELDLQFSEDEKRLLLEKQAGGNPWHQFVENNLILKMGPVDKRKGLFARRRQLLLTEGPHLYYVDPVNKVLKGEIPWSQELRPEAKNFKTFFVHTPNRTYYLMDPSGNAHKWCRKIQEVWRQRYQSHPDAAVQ

kinases [13] = target: kinases (Homo sapiens, UniProt Q96PF2); details: STK22B (TSSK2) FRET-Z-Lyte SP; Test Conc(μM):ATP Conc(μM) 1:5
kinases [14] = target: kinases (Homo sapiens, UniProt P36896); details: ACVR1B (ALK4) *Mn* Z-Lyte SP; Test Conc(μM):ATP Conc(μM) 1:5
kinases [15] = target: kinases (Homo sapiens, UniProt Q15375); details: EPHA7 FRET-Lantha SP; Test Conc(μM) 1
kinases [16] = target: kinases (Homo sapiens, UniProt Q12866); details: MERTK (cMER) *Mn* Z-Lyte SP; Test Conc(μM):ATP Conc(μM) 1:10
kinases [17] = target: kinases (Homo sapiens, UniProt P49761); details: CLK3 FRET-Z-Lyte SP; Test Conc(μM):ATP Conc(μM) 1:150
kinases [18] = target: kinases (Homo sapiens, UniProt Q9Y463); details: DYRK1B FRET-Z-Lyte SP; Test Conc(μM):ATP Conc(μM) 1:75
kinases [19] = target: kinases (Homo sapiens, UniProt Q13153); details: PAK1 FRET-Z-Lyte SP; Test Conc(μM):ATP Conc(μM) 1:50
kinases [20] = target: kinases (Homo sapiens, UniProt Q9Y2U5); details: MAP3K2 (MEKK2) FRET-Lantha SP; Test Conc(μM) 1
kinases [21] = target: kinases (Homo sapiens, UniProt P54762); details: EPHB1 FRET-Z-Lyte SP; Test Conc(μM):ATP Conc(μM) 1:50
kinases [22] = target: kinases (Homo sapiens, UniProt P51451); details: BLK FRET-Z-Lyte SP; Test Conc(μM):ATP Conc(μM) 1:25
kinases [23] = target: kinases (Homo sapiens, UniProt Q9H4A3); details: Test Conc(μM) 1
[24] = PDK1 (Direct) FRET-Z-lyte SP, Test Conc(μM):ATP Conc(μM) 1:25
[25] = PDK1 Cascade FRET-Z-Lyte SP, Test Conc(μM):ATP Conc(μM) 1:100

kinases (Homo sapiens, UniProt P23443), sequence (P23443 whole entry): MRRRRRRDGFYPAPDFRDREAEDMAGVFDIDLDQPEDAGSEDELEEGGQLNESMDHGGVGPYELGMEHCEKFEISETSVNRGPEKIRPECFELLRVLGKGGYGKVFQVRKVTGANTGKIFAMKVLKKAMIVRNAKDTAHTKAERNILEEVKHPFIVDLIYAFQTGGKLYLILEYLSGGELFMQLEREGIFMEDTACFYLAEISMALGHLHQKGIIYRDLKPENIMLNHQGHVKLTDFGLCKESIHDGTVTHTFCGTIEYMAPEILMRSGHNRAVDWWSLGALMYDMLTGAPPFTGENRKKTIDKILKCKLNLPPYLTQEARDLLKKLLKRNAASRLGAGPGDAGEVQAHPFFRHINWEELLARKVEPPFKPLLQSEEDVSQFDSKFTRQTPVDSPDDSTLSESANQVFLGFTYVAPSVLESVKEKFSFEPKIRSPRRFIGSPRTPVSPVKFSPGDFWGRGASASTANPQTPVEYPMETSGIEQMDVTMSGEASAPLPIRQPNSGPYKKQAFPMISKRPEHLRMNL
kinases (Homo sapiens, UniProt O43781), sequence (O43781 whole entry): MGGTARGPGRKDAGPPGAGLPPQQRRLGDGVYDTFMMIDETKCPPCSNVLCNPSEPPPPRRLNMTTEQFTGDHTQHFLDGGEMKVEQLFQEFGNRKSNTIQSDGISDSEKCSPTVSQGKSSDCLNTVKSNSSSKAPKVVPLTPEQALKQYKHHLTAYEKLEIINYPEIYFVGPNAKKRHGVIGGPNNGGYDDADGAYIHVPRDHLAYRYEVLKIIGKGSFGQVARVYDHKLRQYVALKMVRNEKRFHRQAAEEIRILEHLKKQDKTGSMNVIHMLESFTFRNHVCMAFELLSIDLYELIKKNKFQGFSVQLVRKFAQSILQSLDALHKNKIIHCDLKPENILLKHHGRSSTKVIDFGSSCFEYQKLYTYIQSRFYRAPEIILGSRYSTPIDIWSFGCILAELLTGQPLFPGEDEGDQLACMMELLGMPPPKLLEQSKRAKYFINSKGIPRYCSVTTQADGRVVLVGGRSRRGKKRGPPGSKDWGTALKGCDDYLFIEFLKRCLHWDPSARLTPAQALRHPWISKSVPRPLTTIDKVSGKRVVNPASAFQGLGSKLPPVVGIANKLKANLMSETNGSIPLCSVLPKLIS
kinases (Homo sapiens, UniProt Q86UX6), sequence (Q86UX6 whole entry): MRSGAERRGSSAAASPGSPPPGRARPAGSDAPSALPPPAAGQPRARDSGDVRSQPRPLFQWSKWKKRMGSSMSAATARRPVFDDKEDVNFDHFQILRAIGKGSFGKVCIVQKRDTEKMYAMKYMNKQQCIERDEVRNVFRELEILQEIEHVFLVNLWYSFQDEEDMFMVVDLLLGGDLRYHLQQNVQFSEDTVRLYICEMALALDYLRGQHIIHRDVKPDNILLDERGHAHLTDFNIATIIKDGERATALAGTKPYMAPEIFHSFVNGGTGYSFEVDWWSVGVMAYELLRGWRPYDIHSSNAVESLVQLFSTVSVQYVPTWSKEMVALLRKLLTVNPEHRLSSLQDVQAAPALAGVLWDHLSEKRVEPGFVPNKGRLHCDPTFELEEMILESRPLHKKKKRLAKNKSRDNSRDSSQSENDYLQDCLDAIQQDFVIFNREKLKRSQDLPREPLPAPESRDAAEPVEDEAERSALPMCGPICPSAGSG
kinases (Homo sapiens, UniProt Q6PHR2), sequence (Q6PHR2 whole entry): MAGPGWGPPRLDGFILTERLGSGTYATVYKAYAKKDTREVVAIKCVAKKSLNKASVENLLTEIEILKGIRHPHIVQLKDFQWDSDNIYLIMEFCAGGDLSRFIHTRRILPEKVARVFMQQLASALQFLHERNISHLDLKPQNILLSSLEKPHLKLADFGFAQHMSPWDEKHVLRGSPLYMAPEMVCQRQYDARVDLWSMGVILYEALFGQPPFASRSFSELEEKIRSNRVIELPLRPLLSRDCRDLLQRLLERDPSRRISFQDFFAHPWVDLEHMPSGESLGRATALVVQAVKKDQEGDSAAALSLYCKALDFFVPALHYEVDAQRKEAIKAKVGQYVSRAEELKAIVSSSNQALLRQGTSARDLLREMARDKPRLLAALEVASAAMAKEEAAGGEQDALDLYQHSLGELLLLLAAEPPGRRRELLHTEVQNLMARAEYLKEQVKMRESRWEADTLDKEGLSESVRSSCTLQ
kinases (Homo sapiens, UniProt Q92918), sequence (Q92918 whole entry): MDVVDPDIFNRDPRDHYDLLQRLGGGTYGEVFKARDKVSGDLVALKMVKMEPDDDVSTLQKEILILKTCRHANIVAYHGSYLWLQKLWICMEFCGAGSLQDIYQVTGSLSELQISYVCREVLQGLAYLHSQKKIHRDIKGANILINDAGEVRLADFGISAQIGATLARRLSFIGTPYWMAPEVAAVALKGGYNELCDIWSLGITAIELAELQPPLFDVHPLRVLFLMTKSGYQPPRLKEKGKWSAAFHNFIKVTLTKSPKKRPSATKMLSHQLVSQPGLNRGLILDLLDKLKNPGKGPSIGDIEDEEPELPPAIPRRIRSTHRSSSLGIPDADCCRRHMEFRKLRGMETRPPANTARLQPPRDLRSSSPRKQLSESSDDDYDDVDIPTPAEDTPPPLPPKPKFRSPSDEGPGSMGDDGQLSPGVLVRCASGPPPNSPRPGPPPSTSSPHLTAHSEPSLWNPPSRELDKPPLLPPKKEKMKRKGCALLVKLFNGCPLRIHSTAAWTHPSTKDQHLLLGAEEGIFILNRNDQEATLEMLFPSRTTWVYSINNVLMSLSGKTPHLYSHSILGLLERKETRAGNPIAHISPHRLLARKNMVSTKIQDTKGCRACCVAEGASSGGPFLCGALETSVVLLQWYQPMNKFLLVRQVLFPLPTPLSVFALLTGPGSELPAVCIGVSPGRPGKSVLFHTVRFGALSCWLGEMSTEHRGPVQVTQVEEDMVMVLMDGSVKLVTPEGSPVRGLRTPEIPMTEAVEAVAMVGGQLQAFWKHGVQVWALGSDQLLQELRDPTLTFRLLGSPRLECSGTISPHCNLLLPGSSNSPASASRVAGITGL
kinases (Homo sapiens, UniProt Q9Y2U5), sequence (Q9Y2U5 whole entry): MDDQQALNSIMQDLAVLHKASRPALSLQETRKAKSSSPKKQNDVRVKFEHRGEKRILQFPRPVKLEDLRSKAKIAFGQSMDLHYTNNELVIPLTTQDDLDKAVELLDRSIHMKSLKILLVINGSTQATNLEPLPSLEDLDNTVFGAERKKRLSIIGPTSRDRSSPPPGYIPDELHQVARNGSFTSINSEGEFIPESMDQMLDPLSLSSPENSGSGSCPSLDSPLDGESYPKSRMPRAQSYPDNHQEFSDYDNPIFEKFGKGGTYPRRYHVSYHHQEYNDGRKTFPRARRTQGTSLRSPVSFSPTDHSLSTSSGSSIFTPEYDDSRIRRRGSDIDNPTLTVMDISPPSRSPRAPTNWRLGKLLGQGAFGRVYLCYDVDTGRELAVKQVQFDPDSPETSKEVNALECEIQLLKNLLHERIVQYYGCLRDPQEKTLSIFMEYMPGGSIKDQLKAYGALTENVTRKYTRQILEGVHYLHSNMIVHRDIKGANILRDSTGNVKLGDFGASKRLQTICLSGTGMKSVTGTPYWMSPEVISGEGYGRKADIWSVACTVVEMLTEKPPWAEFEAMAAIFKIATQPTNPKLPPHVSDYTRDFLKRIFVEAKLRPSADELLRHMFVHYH
kinases (Homo sapiens, UniProt P54762), sequence (P54762 18-984): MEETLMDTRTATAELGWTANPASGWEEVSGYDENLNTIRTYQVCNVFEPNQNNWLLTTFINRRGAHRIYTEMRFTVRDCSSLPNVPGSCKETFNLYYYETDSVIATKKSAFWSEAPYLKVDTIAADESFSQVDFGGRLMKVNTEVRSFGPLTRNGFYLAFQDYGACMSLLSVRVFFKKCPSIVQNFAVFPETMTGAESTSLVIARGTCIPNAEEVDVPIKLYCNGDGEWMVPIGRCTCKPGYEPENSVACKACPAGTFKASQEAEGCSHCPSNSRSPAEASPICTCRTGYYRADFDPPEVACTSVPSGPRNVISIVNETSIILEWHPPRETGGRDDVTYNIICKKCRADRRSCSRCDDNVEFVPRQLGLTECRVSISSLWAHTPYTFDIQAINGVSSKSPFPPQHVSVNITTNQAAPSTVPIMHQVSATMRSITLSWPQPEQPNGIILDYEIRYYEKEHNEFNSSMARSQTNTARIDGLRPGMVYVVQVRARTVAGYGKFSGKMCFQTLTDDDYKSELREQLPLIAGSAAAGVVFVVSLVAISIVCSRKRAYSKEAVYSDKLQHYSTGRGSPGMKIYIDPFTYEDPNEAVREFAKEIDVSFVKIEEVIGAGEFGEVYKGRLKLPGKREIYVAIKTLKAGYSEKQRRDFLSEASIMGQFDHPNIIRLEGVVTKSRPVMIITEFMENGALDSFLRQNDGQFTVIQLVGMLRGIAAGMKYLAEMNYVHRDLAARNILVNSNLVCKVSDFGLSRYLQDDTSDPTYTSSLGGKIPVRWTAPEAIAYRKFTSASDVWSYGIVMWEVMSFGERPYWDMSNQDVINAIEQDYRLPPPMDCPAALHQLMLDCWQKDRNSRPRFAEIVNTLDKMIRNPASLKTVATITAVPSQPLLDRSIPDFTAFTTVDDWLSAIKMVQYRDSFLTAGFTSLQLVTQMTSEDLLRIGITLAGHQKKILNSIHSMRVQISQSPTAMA
kinases (Homo sapiens, UniProt P49674), sequence (P49674 whole entry): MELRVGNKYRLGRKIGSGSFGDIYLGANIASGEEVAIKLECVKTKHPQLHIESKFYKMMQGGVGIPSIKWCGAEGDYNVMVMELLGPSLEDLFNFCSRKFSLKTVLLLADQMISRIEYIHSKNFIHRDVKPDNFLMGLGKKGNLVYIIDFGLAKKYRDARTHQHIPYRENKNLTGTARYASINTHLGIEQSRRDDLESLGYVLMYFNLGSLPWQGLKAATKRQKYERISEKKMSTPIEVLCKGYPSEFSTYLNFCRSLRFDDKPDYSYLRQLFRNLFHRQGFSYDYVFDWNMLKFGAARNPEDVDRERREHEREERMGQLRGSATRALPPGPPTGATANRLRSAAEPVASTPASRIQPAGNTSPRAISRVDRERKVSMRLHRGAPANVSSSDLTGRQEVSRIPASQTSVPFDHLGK

| SMILES | Mean Inhib (%) (kinases [1]) | Mean Inhib (%) (kinases [2]) | Mean Inhib (%) (kinases [3]) | Mean Inhib (%) (kinases [4]) | Mean Inhib (%) (kinases [5]) | Mean Inhib (%) (kinases [6]) | Mean Inhib (%) (kinases [7]) | Mean Inhib (%) (kinases [8]) | Mean Inhib (%) (kinases [9]) | Mean Inhib (%) (kinases [10]) | Mean Inhib (%) (kinases [11]) | Mean Inhib (%) (kinases [12]; [24]) | Mean Inhib (%) (kinases [12]; [25]) | Mean Inhib (%) (kinases [13]) | Mean Inhib (%) (kinases [14]) | Mean Inhib (%) (kinases [15]) | Mean Inhib (%) (kinases [16]) | Mean Inhib (%) (kinases [17]) | Mean Inhib (%) (kinases [18]) | Mean Inhib (%) (kinases [19]) | further results |
| --- | --- | --- | --- | --- | --- | --- | --- | --- | --- | --- | --- | --- | --- | --- | --- | --- | --- | --- | --- | --- | --- |
| Cc1cc(Oc2ccnc(Nc3ccc(S(N)(=O)=O)cc3)c2)c(-c2ccccn2)nc1C [compound 65] | 1.1 | −2.2 | 1.0 | 7.8 | −2.4 | 14.0 | −13.8 | 2.8 | −1.2 | 11.3 | 0.4 | 6.9 | 9.4 | −0.9 | 97.8 | 10.4 | 7.3 | 5.1 | −5.0 | 14.1 | Mean Inhib (%) (kinases [20]): 5.7%; Mean Inhib (%) (kinases [21]): 47.1%; Mean Inhib (%) (kinases [22]): 9.7%; WNK1 FRET-Lantha SP Mean Mean Inhib (%) (kinases [23]; WNK1): 5.3% |
| Cc1ccc(NC(=O)c2ccnc(N3CCOCC3)c2)cc1Nc1ccnc(N2CC(C)OC(C)C2)n1 (stereo not drawn) [compound 3] | 3.5 | −2.3 | 4.7 | −1.0 | −2.1 | 1.8 | 20.4 | 5.8 | 0.4 | −1.6 | 5.6 | 0.4 | 3.7 | 1.2 | 6.8 | 6.5 | 13.1 | 2.0 | 3.0 | −1.9 | Mean Inhib (%) (kinases [20]): 3.5%; Mean Inhib (%) (kinases [21]): 3.5%; Mean Inhib (%) (kinases [22]): 3.0%; Mean Inhib (%) (kinases [23]; WNK1 FRET-Lantha SP): 2.7% |
